How the values were obtained:
[1] = system: isolated rat bladder strips; assay: Inhibition of contractions in isolated rat bladder strips; conditions: 15 mM KCl-enhanced contractile activity; for IC50: 0.5 h, 30 minute challenge; for inhibition at 30 µM: read-out: % Inhibition @ 30 μM (maximum percentage inhibition of contractile activity)
From the text: Sprague-Dawley rats (150–200 g) were rendered unconscious by CO2 asphyxiation and then euthanized by cervical dislocation. The bladder was removed into warm (37 deg.C.) physiological salt solution (PSS) of the following composition (mM): NaCl, 118.4; KCl, 4.7; CaCl2, 2.5; […]; NaHCO3, 24.9; KH2PO4, 1.2; glucose, 11.1; EDTA, 0.023; gassed with 95% O2; […]; pH 7.4. The bladder was opened and then cut into strips 1–2 mm in width and 7–10 mm in length. The strips are subsequently suspended in a 10 mL tissue bath under an initial resting tension of 1.5 g. The strips were held in place by two surgical clips one of which is attached to a fixed hook while the other is attached to an isometric force transducer. […] The carbachol was then washed out and the tissue allowed to relax to its resting level of activity. Following a further 30 minute period of recovery an additional 15 mM KCl were introduced into the tissue bath. […] Following stabilization of this enhanced level of contractile activity, incremental increases in the concentration of test compound or vehicle were introduced into the tissue bath. Contractile activity was measured for each compound or vehicle concentration during the last minute of a 30 minute challenge.
The isometric force developed by the bladder strips was measured using a […] to elicit 50% inhibition of pre-drug contractile activity (IC50 concentration) and was calculated from this concentration-response curve.

SMILES	IC50 [1] [µM]	melting point [°C]	inhibition at 30 µM [1] [%]
CC(N1C(=O)C(=O)N(c2ccc(C#N)cc2)C1=S)C(C)(C)C (racemic) [Example 1, 4-[4,5-Dioxo-2-thioxo-3-(1,2,2-trimethyl-propyl)-imidazolidin-1-yl]-benzonitrile]	3.3 ± 0.08	219.6 to 219.9	–
CC(C)(C)CN1C(=O)C(=O)N(c2ccc(C#N)cc2)C1=S [Example 2, 4-[3-(2,2-Dimethyl-propyl)-4,5-dioxo-2-thioxo-imidazolidin-1-yl]-benzonitrile]	3.4 ± 0.8	128 to 129	–
CCC(C)(C)N1C(=O)C(=O)N(c2ccc(C#N)cc2)C1=S [Example 3, 4-[3-(1,1-Dimethyl-propyl)-4,5-dioxo-2-thioxo-imidazolidin-1-yl]-benzonitrile]	25.7 ± 3.7	173.1 to 174.3	–
CC(C)(C)N1C(=O)C(=O)N(c2ccc(C#N)cc2)C1=S [Example 4, 4-(3-tert-Butyl-4,5-dioxo-2-thioxo-imidazolidin-1-yl)-benzonitrile]	30 ± 5	200.4 to 201.3	–
CCc1cc(C#N)ccc1N1C(=O)C(=O)N(C(C)(C)CC)C1=S [Example 5, 4-[3-(1,1-Dimethyl-propyl)-4,5-dioxo-2-thioxo-imidazolidin-1-yl]-3-ethyl-benzonitrile]	28.9 ± 2.6	172.8 to 173.3	–
C[C@@H](N1C(=O)C(=O)N(c2ccc(C#N)cc2)C1=S)C(C)(C)C [Example 6, 4-[4,5-Dioxo-2-thioxo-3-((1R)-1,2,2-trimethyl-propyl)-imidazolidin-1-yl]-benzonitrile]	4.2 ± 1.4	197.6 to 197.8	–
CC(N1C(=O)C(=O)N(c2cccc(C#N)c2)C1=S)C(C)(C)C (stereo not shown) [Example 7, 3-[4,5-Dioxo-2-thioxo-3-(1,2,2-trimethyl-propyl)-imidazolidin-1-yl]-benzonitrile]	–	168.1 to 168.7	29.2
CC(N1C(=O)C(=O)N(c2ccc(Br)cc2)C1=S)C(C)(C)C (stereo not shown) [Example 8, 1-(4-Bromo-phenyl)-2-thioxo-3-(1,2,2-trimethyl-propyl)-imidazolidine-4,5-dione]	27.2	207.1 to 207.9	22.4
CN(C)c1ccc(N2C(=O)C(=O)N(CC(C)(C)C)C2=S)cc1.Cl [Example 9, 1-(4-Dimethylamino-phenyl)-3-(2,2-dimethyl-propyl)-2-thioxo-imidazolidine-4,5-dione Hydrochloride]	–	244 to 246	33.2
CC(N1C(=O)C(=O)N(c2ccc(F)cc2F)C1=S)C(C)(C)C (stereo not shown) [Example 10, 1-(2,4-Difluoro-phenyl)-2-thioxo-3-(1,2,2-trimethyl-propyl)-imidazolidine-4,5-dione]	–	155.2 to 156	23.1
CC(C)(C)CN1C(=O)C(=O)N(c2ccc(F)cc2F)C1=S [Example 11, 1-(2,4-Difluoro-phenyl)-3-(2,2-dimethyl-propyl)-2-thioxo-imidazolidine-4,5-dione]	–	156.2 to 156.9	30.6
CC(N1C(=O)C(=O)N(c2ccc(Cl)cc2)C1=S)C(C)(C)C (stereo not shown) [Example 12, 1-(4-Chloro-phenyl)-2-thioxo-3-(1,2,2-trimethyl-propyl)-imidazolidine-4,5-dione]	–	198.8 to 199.5	24.3
CC(N1C(=O)C(=O)N(c2ccc(C(C)(C)C)cc2)C1=S)C(C)(C)C (stereo not shown) [Example 13, 1-(4-tert-Butyl-phenyl)-2-thioxo-3-(1,2,2-trimethyl-propyl)-imidazolidine-4,5-dione]	–	208.9 to 209.5	18.3
CC(C)(C)CN1C(=O)C(=O)N(c2ccc(F)cc2)C1=S [Example 14, 1-(2,2-Dimethyl-propyl)-3-(4-fluoro-phenyl)-2-thioxo-imidazolidine-4,5-dione]	–	165.2 to 166.3	15
CC(C)(C)CN1C(=O)C(=O)N(c2cccnc2)C1=S [Example 15, 1-(2,2-Dimethyl-propyl)-3-pyridin-3-yl-2-thioxo-imidazolidine-4,5-dione]	3.6 ± 0.8	111.4 to 112.8	–

From patent publication US7115620B2, “1,3-disubstituted-2-thioxo-imidazolidine-4,5-diones as potassium channel openers” (Wyeth, priority 2001, dated 2006)
